Data: paper PMC5944846 (ACS chemical biology, 2018)
≈ marks a conversion by molar mass, not a printed value. Like-named read-outs stand apart in the source and are kept apart here.

Tested on: E. coli ATCC 25922
Assay: MIC against E. coli ATCC 25922
Assay type: cell-based
Conditions: Escherichia coli

`CN(C)[C@@H]1C(O)=C(C(N)=O)C(=O)[C@@]2(O)C(O)=C3C(=O)c4c(O)cccc4[C@@](C)(O)[C@H]3[C@H](O)[C@@H]12` [oxytetracycline] was tested, and the MIC (ATCC25922, read-out: oxytetracycline + 32 μg/mL tyrobetaine MIC) was 8 µg/mL and the MIC (ATCC25922, read-out: oxytetracycline MIC) was 4 µg/mL (≈ 8.69 µM).
